From patent US20040180855A1, “Methods of treating thrombosis with reduced risk of increased bleeding times” (priority 2003, published 2004)

Columns and labels:
[1] = test system: FeCl2-induced carotid artery thrombosis; experiment: Arterial thrombosis model (FeCl2 carotid artery); format: in vivo, rat; conditions: i.v. 12 mg/kg plus 12 mg/kg/hr
Protocol: General Surgical Preparation Male Sprague Dawley rats (310 to 390 g) were anesthetized with Na-pentobarbital (50 mg/kg i.p.). The left jugular vein was cannulated with PE-50 tubing for drug administration, and the trachea was intubated with PE-205 tubing to ensure airway patency. In some animals, a carotid artery was cannulated with PE-50 tubing to obtain blood samples, and a procedure was followed as described in Schumacher et al., “Comparison of Thrombin Active-Site and Exosite Inhibitors and Heparin in Experimental Models of Arterial and Venous Thrombosis and Bleeding,” J. Pharmacol. Exp. Therap., Vol. 267 (1993), at pp. 1237-42; Schumacher et al., Effects of Antithrombotic Drugs in a Rat Model of Aspirin-Insensitive Arterial Thrombosis, Thromb Haemostasis, Vol. 69 (1993), at pp. 509-514; or Schumacher et al., Effect of a Novel Thrombin Active-Site Inhibitor on Arterial and Venous Thrombosis, Eur J Pharmacol., Vol. 259 (1994), at pp. 165-171, each of which is incorporated herein by reference. […]
Arterial Thrombosis The left carotid artery was exposed and a piece of parafilm “M” (American National Can, Greenwich, Conn.) was inserted under the vessel. […] Carotid blood flow (CBF) was monitored continuously on a TA3800 physiologic recorder (Gould, Cleveland, Ohio). Total CBF was determined and normalized as percent of baseline (0 min) flow over 60 min to provide a measure of average blood flow during thrombus formation.
Statistical Analysis In the venous and arterial thrombosis procedures, treatment effects on thrombus weight, baseline blood flow, and average blood flow during thrombosis were determined by analysis of variance with Dunnett's test for comparison to the vehicle group. […] Treatment effects on bleeding times were determined by analysis of variance with Dunnett's test for comparison to the vehicle group. Both post-treatment and pre-treatment bleeding times and the relative bleeding time increases in sec were analyzed. […]

rat plasma = experiment: PT clotting time, rat plasma; format: biochemical; conditions: up to 100 μM
Protocol: The term “PT” time as used herein refers to prothrombin times which is intended to refer to the time elapsed between formation of an assay solution and detection of clot formation in the assay solution with use of a PT assay, i.e., an assay employing thromboplastin reagents that are used for evaluating blood coagulation associated with the extrinsic pathway.
(§1) PT and APTT clotting times were determined as described in Balasubramanian et al., J. Med. Chem., Vol. 36 (1993), at pp. 300-03, incorporated herein by reference. The whole blood aggregation response of rat platelets to collagen was determined using the impedance procedure for a Model 560-CA Chrono-Log aggregometer (Havertown, Pa.).

human plasma = experiment: APTT clotting time, human plasma; format: biochemical
Text: The term “APTT” as used herein means “activated partial thromboplastin times” which is intended to refer to the time elapsed between the formation of an assay solution and the detection of clot formation in the assay solution with use of an APTT assay, i.e., an assay employing an intrinsic pathway activator, such as micronized silica, and a phospholipid component of a thromboplastin reagent (without tissue factor protein) for evaluating coagulation associated with the intrinsic pathway.
as §1

CC(C)(C)NC(=O)N1CCN(C(=O)N2C(=O)[C@H](CCCNC(=N)N)[C@H]2C(=O)O)CC1 [Example 4]
decrease in thrombus weight ([1]; rat carotid artery, FIG. 2): 73% | average blood flow during thrombosis and vessel patency ([1]; rat): improvement | effect on FeCl2-induced carotid artery thrombosis (carotid blood flow, FIG. 1) ([1]; rat): prevented | Clotting time PT (rat), concentration that doubles clotting time (rat plasma): >100 µM | Clotting time APTT (human), concentration that doubles clotting time (human plasma): 0.6 µM
